Consider 19 compounds from publication PMC7145527 (2019).

Test [1] has as its system wt Chili RNA aptamer (RNA, aptamer) GGCUAGCUGGAGGGGCGCCAGUUCGCUGGUGGUUGGGUGCGGUCGGCUAGCC
The test can be described thus: fluorescence activation.

Test [2] relates to Chili C16U (RNA, aptamer) GGCUAGCUGGAGGGGUGCCAGUUCGCUGGUGGUUGGGUGCGGUCGGCUAGCC
The test can be described thus: fluorescence activation. To be noted: K+ 125 mM, Mg2+ 5 mM; HEPES pH 7.5; inferred from absent fluorescence; 0.5 µM RNA and dye.

The test system of test [3] is Chili G31A (RNA, aptamer) GGCUAGCUGGAGGGGCGCCAGUUCGCUGGUAGUUGGGUGCGGUCGGCUAGCC
The test can be described thus: fluorescence activation. To be noted: K+ 125 mM, Mg2+ 5 mM; HEPES pH 7.5; inferred from absent fluorescence; 0.5 µM RNA and dye.

For test [4], the system named is Chili C16U/G31A (RNA, aptamer) GGCUAGCUGGAGGGGUGCCAGUUCGCUGGUAGUUGGGUGCGGUCGGCUAGCC
The test can be described thus: fluorescence activation. To be noted: K+ 125 mM, Mg2+ 5 mM; HEPES pH 7.5; inferred from absent fluorescence; 0.5 µM RNA and dye.

Test [5] deals with Chili G35A (RNA, aptamer) GGCUAGCUGGAGGGGCGCCAGUUCGCUGGUGGUUAGGUGCGGUCGGCUAGCC
Put plainly: fluorescence activation. To be noted: K+ 125 mM, Mg2+ 5 mM, HEPES pH 7.5.

Test [6] relates to Chili G36A (RNA, aptamer) GGCUAGCUGGAGGGGCGCCAGUUCGCUGGUGGUUGAGUGCGGUCGGCUAGCC
Put plainly: fluorescence activation. To be noted: K+ 125 mM, Mg2+ 5 mM, HEPES pH 7.5.

Test [7] has as its system wt Chili RNA aptamer (RNA, aptamer) GGCUAGCUGGAGGGGCGCCAGUUCGCUGGUGGUUGGGUGCGGUCGGCUAGCC
Put plainly: fluorescence activation kinetics. To be noted: K+ 125 mM, Mg2+ 5 mM; 40 mM HEPES pH 7.5, 25 °C; 0.025 µM RNA.

Test [8] shares this test system. Put plainly: isothermal titration calorimetry. To be noted: K+ 125 mM, Mg2+ 5 mM; HEPES pH 7.5, 25 °C.
The subject of test [9] is Chili U34C (RNA, aptamer) GGCUAGCUGGAGGGGCGCCAGUUCGCUGGUGGUCGGGUGCGGUCGGCUAGCC
The test can be described thus: fluorescence activation. To be noted: K+ 125 mM, Mg2+ 5 mM; HEPES pH 7.5; I540 203.1 versus wt 200.2.

Test [10] has as its system Chili U38C (RNA, aptamer) GGCUAGCUGGAGGGGCGCCAGUUCGCUGGUGGUUGGGCGCGGUCGGCUAGCC
The test can be described thus: fluorescence activation. The note with it: K+ 125 mM, Mg2+ 5 mM; HEPES pH 7.5; I540 129.3 versus wt 200.2.

The test system of test [11] is Chili C40U (RNA, aptamer) GGCUAGCUGGAGGGGCGCCAGUUCGCUGGUGGUUGGGUGUGGUCGGCUAGCC
Put plainly: fluorescence activation. To be noted: K+ 125 mM, Mg2+ 5 mM; HEPES pH 7.5; I540 156.1 versus wt 200.2.

In test [12] the test system is Chili C44U (RNA, aptamer) GGCUAGCUGGAGGGGCGCCAGUUCGCUGGUGGUUGGGUGCGGUUGGCUAGCC
The test can be described thus: fluorescence activation. To be noted: K+ 125 mM, Mg2+ 5 mM; HEPES pH 7.5; I540 122.6 versus wt 200.2.

In test [13] the test system is wt Chili RNA aptamer (RNA, aptamer) GGCUAGCUGGAGGGGCGCCAGUUCGCUGGUGGUUGGGUGCGGUCGGCUAGCC
The test can be described thus: imino 1H NMR. To be noted: K+ 50 mM, Mg2+ 1 mM; 25 mM KPi pH 7.4; 20 µM RNA, 20 µM dye.

The test system is the same in test [14]. The test can be described thus: fluorescence titration. The note with it: K+ 125 mM, Mg2+ 5 mM, HEPES pH 7.5, incubated at 4 °C 16 h.
Test [15] has the same test system. The test can be described thus: fluorescence competition. To be noted: K+ 125 mM, Mg2+ 5 mM; 40 mM HEPES pH 7.5; competes with DMHBAI; up to 5 µM (tenfold excess).
[16] abbreviates: K+ 125 mM, Mg2+ 5 mM, 80 mM HEPES pH 7.5, 0.5 µM RNA, 0.5 µM dye.
The mark [17] stands for this setting: weaker fluorescence than parent Chili.

For `COc1cc(/C=C2\N=C(C)N(c3ccccc3)C2=O)cc(OC)c1O`, in [1] (setting [16]), the binding entry is recorded as “yes”.
The term kon denotes the second-order rate constant of association. Broadly, the KD is a measure of binding affinity in units of concentration. Read a high KD as a looser complex. Regarding `COc1cc(/C=C2\N=C(C)N(c3ccc([N+](C)(C)C)cc3)C2=O)cc(OC)c1O`, the binding result in test [2] was “no”; in [3] it was “no”; in [4], “no”; in test [5] (setting [17]) it was “yes”; in test [6] (setting [17]), “yes”. The kon in test [7] was determined as 82000 L/mol/s. The KD in [8] is 24.1 ± 5.6 nM.
In the case of `COc1cc(/C=C2N=C(/C=C/c3c[nH]cn3)N(C)C\2=O)cc(OC)c1O`, in test [1] (setting [16]), the binding entry is given as “yes”.
For the compound `COc1cc(/C=C2\N=C(C)N(C)C2=O)cc(OC)c1O`, the binding result in [2] is “no”; in test [3], “no”; in test [4], “no”; in [9] it was “yes”; in [5] (I540 138.2 versus wt 200.2), “yes”; in test [6] (I540 192.9 versus wt 200.2), “yes”. Besides, the binding result in [10], in test [11] and in test [12] was “yes” each time. This compound returned a KD in test [8] of 371 ± 55 nM.
`COc1cc(/C=C2N=C(/C=C/c3ccccc3)N(C)C\2=O)cc(OC)c1O`: the binding entry in test [13] is “yes”.
For `COc1cc(/C=C2N=C(/C=C/c3ccccc3)N(c3ccc([N+](C)(C)C)cc3)C\2=O)cc(OC)c1O`, the binding result in test [1] (setting [16]) is “yes”.
As to `CN1C(=Cc2cc[n+](C)c3ccccc23)Sc2ccccc21`, the binding result in test [1] is listed as “yes”.
With `CCN1C(=O)/C(=C/c2cc(OC)c(O)c(OC)c2)N=C1C`, the binding result in test [1] (setting [16]) is “yes”.
Compound `COc1ccc(N2C(=O)/C(=C/c3cc(OC)c(O)c(OC)c3)N=C2C)cc1` showed a KD in test [14] (dye 0.1 µM) of 65 ± 7 nM.
With `COc1cc(/C=C2N=C(/C=C/c3ccncc3)N(C)C\2=O)cc(OC)c1O`, the binding result in test [13] is recorded as “yes”.
Turning to `COc1cc(/C=C2\N=C(C)N(c3ccc(C)cc3)C2=O)cc(OC)c1O`, the KD in [14] (Figure S6 legend instead prints 0.377±0.024 µM) came to 151 ± 21 nM.
For `COc1cc(/C=C2\N=C(C)N([C@H]3CC[C@H](C)CC3)C2=O)cc(OC)c1O`, the binding entry in [1] (setting [16]) is on record as “yes”.
With `COc1ccc(N2C(=O)/C(=C/c3ccc(O)c(OC)c3)N=C2C)cc1`, in [1] (setting [16]), the binding result is given as “yes”.
For the compound `COc1cc(/C=C2N=C(/C=C/c3c[nH]c4ccccc34)N(C)C\2=O)cc(OC)c1O`, the binding result in [1] (setting [16]) is “yes”.
`COc1cc(/C=C2\N=C(C)N(C)C2=O)cc(Br)c1O`: in test [1] (setting [16]), the binding entry is “yes”.
Same read-out and setting: for `COc1cc(/C=C2N=C(/C=C/c3c[nH]c4ccccc34)N(c3ccc(C)cc3)C\2=O)cc(OC)c1O` the value was “yes”.
For the compound `Cc1ccc2c(c1)sc(-c1ccc(N(C)C)cc1)[n+]2C`, the binding result in test [1] is recorded as “yes”.
Turning to `COc1ccc(N2C(=O)/C(=C/c3cc(OC)cc(OC)c3)N=C2C)cc1`, in test [15], the binding entry was “no”.
On to `COc1cc(/C=C2\N=C(C=NO)N(c3ccc([N+](C)(C)C)cc3)C2=O)cc(OC)c1O`, for which the kon in test [7] was determined as 65000 L/mol/s.
